Numbers after ± are expanded uncertainties.
Experiment: xn = mol fraction of the nth substance listed
Conditions: 101 kPa, Liquid; for viscosity: Concentric cylinders viscometry; for mass density: Vibrating tube method

CC(O)CN (stereo not given) [1-amino-2-propanol] + CCCCO
Conditions	mass density [kg/m3]	viscosity [mPa·s]
288.15 K, x1 = 0.1	827.167 ± 0.26	4.019 ± 0.12
288.15 K, x1 = 0.2005	841.339 ± 0.3	4.952 ± 0.15
288.15 K, x1 = 0.3	855.625 ± 0.34	6.238 ± 0.19
288.15 K, x1 = 0.3999	870.246 ± 0.38	8.046 ± 0.25
288.15 K, x1 = 0.5	885.14 ± 0.43	10.48 ± 0.33
288.15 K, x1 = 0.6001	900.478 ± 0.49	13.85 ± 0.43
288.15 K, x1 = 0.7	916.099 ± 0.55	18.2 ± 0.57
288.15 K, x1 = 0.8	932.069 ± 0.62	24.34 ± 0.77
288.15 K, x1 = 0.8997	948.249 ± 0.7	32.26 ± 1
288.15 K, x1 = 1	964.544 ± 0.8	43.7 ± 1.4
293.15 K, x1 = 0.1	823.338 ± 0.26	3.444 ± 0.11
293.15 K, x1 = 0.2005	837.455 ± 0.3	4.218 ± 0.13
293.15 K, x1 = 0.3	851.736 ± 0.33	5.202 ± 0.16
293.15 K, x1 = 0.3999	866.053 ± 0.38	6.617 ± 0.2
293.15 K, x1 = 0.5	881.2 ± 0.43	8.455 ± 0.26
293.15 K, x1 = 0.6001	896.524 ± 0.48	10.88 ± 0.34
293.15 K, x1 = 0.7	912.152 ± 0.55	14.08 ± 0.44
293.15 K, x1 = 0.8	928.119 ± 0.62	18.34 ± 0.58
293.15 K, x1 = 0.8997	944.296 ± 0.7	23.93 ± 0.76
293.15 K, x1 = 1	960.598 ± 0.79	31.68 ± 1
298.15 K, x1 = 0.1	819.488 ± 0.26	2.989 ± 0.092
298.15 K, x1 = 0.2005	833.571 ± 0.3	3.62 ± 0.11
298.15 K, x1 = 0.3	847.825 ± 0.33	4.398 ± 0.14
298.15 K, x1 = 0.3999	862.123 ± 0.38	5.507 ± 0.17
298.15 K, x1 = 0.5	877.169 ± 0.43	6.858 ± 0.21
298.15 K, x1 = 0.6001	892.563 ± 0.48	8.782 ± 0.27
298.15 K, x1 = 0.7	908.181 ± 0.55	11.03 ± 0.35
298.15 K, x1 = 0.8	924.144 ± 0.62	14.18 ± 0.45
298.15 K, x1 = 0.8997	940.31 ± 0.7	18.16 ± 0.57
298.15 K, x1 = 1	956.618 ± 0.79	23.54 ± 0.75
303.15 K, x1 = 0.1	815.611 ± 0.26	2.615 ± 0.081
303.15 K, x1 = 0.2005	829.669 ± 0.3	3.129 ± 0.097
303.15 K, x1 = 0.3	843.892 ± 0.33	3.756 ± 0.12
303.15 K, x1 = 0.3999	858.167 ± 0.38	4.639 ± 0.14
303.15 K, x1 = 0.5	873.195 ± 0.42	5.721 ± 0.18
303.15 K, x1 = 0.6001	888.575 ± 0.48	7.156 ± 0.22
303.15 K, x1 = 0.7	904.186 ± 0.54	8.892 ± 0.28
303.15 K, x1 = 0.8	920.144 ± 0.61	11.17 ± 0.35
303.15 K, x1 = 0.8997	936.303 ± 0.69	14.06 ± 0.44
303.15 K, x1 = 1	952.612 ± 0.78	17.9 ± 0.57
308.15 K, x1 = 0.1	811.706 ± 0.26	2.298 ± 0.071
308.15 K, x1 = 0.2005	825.735 ± 0.3	2.726 ± 0.084
308.15 K, x1 = 0.3	839.932 ± 0.33	3.23 ± 0.1
308.15 K, x1 = 0.3999	854.42 ± 0.37	3.944 ± 0.12
308.15 K, x1 = 0.5	869.288 ± 0.42	4.788 ± 0.15
308.15 K, x1 = 0.6001	884.561 ± 0.48	5.904 ± 0.18
308.15 K, x1 = 0.7	900.162 ± 0.54	7.231 ± 0.23
308.15 K, x1 = 0.8	916.116 ± 0.61	8.949 ± 0.28
308.15 K, x1 = 0.8997	932.266 ± 0.69	11.1 ± 0.35
308.15 K, x1 = 1	948.577 ± 0.78	13.88 ± 0.44
313.15 K, x1 = 0.1	807.768 ± 0.26	2.03 ± 0.063
313.15 K, x1 = 0.2005	821.766 ± 0.3	2.389 ± 0.074
313.15 K, x1 = 0.3	835.94 ± 0.33	2.801 ± 0.087
313.15 K, x1 = 0.3999	850.406 ± 0.37	3.377 ± 0.11
313.15 K, x1 = 0.5	865.257 ± 0.42	4.049 ± 0.13
313.15 K, x1 = 0.6001	880.518 ± 0.48	4.929 ± 0.15
313.15 K, x1 = 0.7	896.106 ± 0.54	5.957 ± 0.19
313.15 K, x1 = 0.8	912.054 ± 0.61	7.272 ± 0.23
313.15 K, x1 = 0.8997	928.196 ± 0.69	8.9 ± 0.28
313.15 K, x1 = 1	944.515 ± 0.77	10.96 ± 0.35
318.15 K, x1 = 0.1	803.791 ± 0.26	1.801 ± 0.056
318.15 K, x1 = 0.2005	817.764 ± 0.29	2.104 ± 0.065
318.15 K, x1 = 0.3	831.911 ± 0.33	2.445 ± 0.076
318.15 K, x1 = 0.3999	846.355 ± 0.37	2.915 ± 0.091
318.15 K, x1 = 0.5	861.194 ± 0.42	3.454 ± 0.11
318.15 K, x1 = 0.6001	876.438 ± 0.47	4.159 ± 0.13
318.15 K, x1 = 0.7	892.017 ± 0.54	4.969 ± 0.16
318.15 K, x1 = 0.8	907.96 ± 0.6	5.989 ± 0.19
318.15 K, x1 = 0.8997	924.096 ± 0.68	7.238 ± 0.23
318.15 K, x1 = 1	940.423 ± 0.77	8.798 ± 0.28
323.15 K, x1 = 0.1	799.764 ± 0.26	1.606 ± 0.05
323.15 K, x1 = 0.2005	813.705 ± 0.29	1.865 ± 0.058
323.15 K, x1 = 0.3	827.834 ± 0.33	2.144 ± 0.067
323.15 K, x1 = 0.3999	842.264 ± 0.37	2.535 ± 0.079
323.15 K, x1 = 0.5	857.087 ± 0.42	2.973 ± 0.093
323.15 K, x1 = 0.6001	872.324 ± 0.47	3.541 ± 0.11
323.15 K, x1 = 0.7	887.889 ± 0.53	4.192 ± 0.13
323.15 K, x1 = 0.8	903.828 ± 0.6	4.994 ± 0.16
323.15 K, x1 = 0.8997	919.961 ± 0.68	5.96 ± 0.19
323.15 K, x1 = 1	936.293 ± 0.76	7.166 ± 0.23
328.15 K, x1 = 0.1	795.685 ± 0.27	1.436 ± 0.044
328.15 K, x1 = 0.2005	809.606 ± 0.29	1.662 ± 0.052
328.15 K, x1 = 0.3	823.708 ± 0.33	1.887 ± 0.059
328.15 K, x1 = 0.3999	838.127 ± 0.37	2.218 ± 0.069
328.15 K, x1 = 0.5	852.936 ± 0.42	2.579 ± 0.081
328.15 K, x1 = 0.6001	868.161 ± 0.47	3.047 ± 0.095
328.15 K, x1 = 0.7	883.72 ± 0.53	3.568 ± 0.11
328.15 K, x1 = 0.8	899.655 ± 0.6	4.211 ± 0.13
328.15 K, x1 = 0.8997	915.789 ± 0.67	4.976 ± 0.16
328.15 K, x1 = 1	932.13 ± 0.76	5.915 ± 0.19
333.15 K, x1 = 0.1	791.549 ± 0.27	1.302 ± 0.04
333.15 K, x1 = 0.2005	805.451 ± 0.29	1.499 ± 0.047
333.15 K, x1 = 0.3	819.532 ± 0.33	1.699 ± 0.053
333.15 K, x1 = 0.3999	833.936 ± 0.37	1.973 ± 0.061
333.15 K, x1 = 0.5	848.734 ± 0.41	2.286 ± 0.071
333.15 K, x1 = 0.6001	863.951 ± 0.47	2.663 ± 0.083
333.15 K, x1 = 0.7	879.505 ± 0.53	3.099 ± 0.097
333.15 K, x1 = 0.8	895.441 ± 0.59	3.618 ± 0.11
333.15 K, x1 = 0.8997	911.577 ± 0.67	4.225 ± 0.13
333.15 K, x1 = 1	927.93 ± 0.75	4.986 ± 0.16

— the NIST ThermoML archive (doi:10.1021/je401036f)
